# Tested on: adipose cells of rats
# Experiment: Evaluation of the sugar-transporting activity (2-[14C(U)]-deoxy-D-glucose incorporation)
# Format: cell-based
# Conditions: concentration having a reinforcing effect corresponding to 50% of the reinforcing effect of insulin (100%); rat adipose cells
# Description: After the decapitation and venesection of 6 male Wistar rats (body weight: 150 to 200 g), an incision was made in the abdomen of each rat to extract 6 g in total of epididymal adipose tissues. The tissues were finely cut into 2 mm×2 mm pieces in 6 ml of KRH (Krebs-Ringer Hepes, composition: 130 mM of sodium chloride, 4.7 mM of potassium chloride, 1.2 mM of potassium dihydrogenphosphate, 1.2 mM of magnesium sulfate, 1 mM of calcium chloride and 25 mM of Hepes, pH=7.6) containing 5% of BSA (bovine serum albumin). 24 mg of collagenase (type I) was added thereto and the digestion treatment was conducted for about 40 minutes to obtain about 6 ml of isolated adipose cells. The collagenase was removed by the buffer exchange. 2% BSA/KRH solution was added to the residue for the re-suspension to obtain 45 ml of an adipose cell suspension.
# The sugar-transporting activity of the compounds of the present invention was evaluated with reference to a method described in a literature [Annual Review of Biochemistry, Vol. 55, p. 1059 (1986)]. In the test, 200 μl of the adipose cell suspension was poured in each polystyrene test tube, 100 μl of the solution of the test substance (by dilution of 10 mg/ml substance dimethyl sulfoxide solution with KRH) was added thereto, and the obtained mixture was shaken and then cultured at 37° C. for 30 minutes.
# The sugar-transporting activity was evaluated by measuring the quantity of 2-[^14C(U)]-deoxy-D-glucose incorporated per a unit time. Namely, 2-[^14C(U)]-deoxy-D-glucose was added to the adipose cell suspension after the pre-culture (the final concentration: 0.5 μCi/sample). 5 minutes after, cytochalasin B (final concentration: 10 μM) was added to the mixture to terminate the sugar transportation. After forming a dinonyl phthalate layer, the obtained mixture was centrifuged to separate the adipose cells from the buffer. The quantity of 2-[^14C(U)]-deoxy-D-glucose contained in the adipose cell layer was determined with a liquid scintillation counter to determine the quantity of the incorporated sugar. In this evaluation system, when insulin (100 nM) having the effect of increasing the sugar transportation was used, the effect was about 7 times as high as that obtained in the insulin-free control group.
# The results of the evaluation of the sugar-transporting activity obtained by using 100 μg/ml of each compound of the present invention are shown in Table 6. The sugar transporting activity in Table 6 was evaluated on the basis of the reinforcing effect of insulin (100 nM). […] The symbols in Table 6 are as follows: • No: Example No., and • A: sugar transporting activity.
# The results of the evaluation of the sugar-transporting activity obtained by using each compound of the present invention are shown in Table 7. The sugar transporting activity in Table 7 was determined in terms of the concentration (EC50: μg/ml) of a test compound, having a reinforcing effect corresponding to 50% on the basis of the reinforcing effect of insulin having a reinforcing effect of 100%.
row,A: sugar transporting activity (EC50) [µg/mL],Structure (SMILES)
1,18,COc1ccccc1[C@@H]1C2=C(CNC2=O)N[C@@H]2CCCC[C@H]2N1C(=O)c1ccncc1 [Example 78]
2,8.6,COc1ccccc1[C@@H]1C2=C(CNC2=O)N[C@@H]2CCCC[C@H]2N1C(=O)c1cnccn1 [Example 79]
3,6,COC(=O)N1[C@@H]2CCCC[C@H]2NC2=C(C(=O)NC2)[C@H]1c1ccccc1OC [Example 80]
4,4.2,CCOC(=O)N1[C@@H]2CCCC[C@H]2NC2=C(C(=O)NC2)[C@H]1c1ccccc1OC [Example 81]
5,6,COc1ccccc1[C@@H]1C2=C(CNC2=O)N[C@@H]2CCCC[C@H]2N1C(=O)OCc1ccccc1 [Example 82]
6,11,COc1ccccc1[C@@H]1C2=C(CNC2=O)N[C@@H]2CCCC[C@H]2N1C(=O)Oc1ccccc1 [Example 83]
7,3.6,CCNC(=O)N1[C@@H]2CCCC[C@H]2NC2=C(C(=O)NC2)[C@H]1c1ccccc1OC [Example 84]
8,7,CCCNC(=O)N1[C@@H]2CCCC[C@H]2NC2=C(C(=O)NC2)[C@H]1c1ccccc1OC [Example 85]
9,15,CCOc1ccccc1[C@@H]1C2=C(CNC2=O)N[C@@H]2CCCC[C@H]2N1C(C)=O [Example 87]
10,1.9,CCOc1ccccc1[C@@H]1C2=C(CNC2=O)N[C@@H]2CCCC[C@H]2N1C(=O)CC [Example 88]
11,1.3,CCCC(=O)N1[C@@H]2CCCC[C@H]2NC2=C(C(=O)NC2)[C@H]1c1ccccc1OCC [Example 89]
12,5,CCOc1ccccc1[C@@H]1C2=C(CNC2=O)N[C@@H]2CCCC[C@H]2N1C(=O)C(F)(F)F [Example 90]
13,13,CCOc1ccccc1[C@@H]1C2=C(CNC2=O)N[C@@H]2CCCC[C@H]2N1C(=O)COC(C)=O [Example 91]
14,3.8,CCOc1ccccc1[C@@H]1C2=C(CNC2=O)N[C@@H]2CCCC[C@H]2N1C(=O)CO [Example 92]
15,3.6,CCOc1ccccc1[C@@H]1C2=C(CNC2=O)N[C@@H]2CCCC[C@H]2N1C(=O)COC [Example 93]
16,4,CCOCC(=O)N1[C@@H]2CCCC[C@H]2NC2=C(C(=O)NC2)[C@H]1c1ccccc1OCC [Example 94]
17,1.5,CCOc1ccccc1[C@@H]1C2=C(CNC2=O)N[C@@H]2CCCC[C@H]2N1C(=O)OC [Example 95]
18,7,CCOC(=O)N1[C@@H]2CCCC[C@H]2NC2=C(C(=O)NC2)[C@H]1c1ccccc1OCC [Example 96]
19,12,CCNC(=O)N1[C@@H]2CCCC[C@H]2NC2=C(C(=O)NC2)[C@H]1c1ccccc1OCC [Example 97]
20,2,CCC(=O)N1[C@@H]2CCCC[C@H]2NC2=C(C(=O)NC2)[C@H]1c1ccccc1OC(C)C [Example 99]
21,2,CCOCC(=O)N1[C@@H]2CCCC[C@H]2NC2=C(C(=O)NC2)[C@H]1c1ccccc1OC(C)C [Example 100]
22,4.8,COC(=O)N1[C@@H]2CCCC[C@H]2NC2=C(C(=O)NC2)[C@H]1c1ccccc1OC(C)C [Example 101]
23,4,CCOCC(=O)N1[C@@H]2CCCC[C@H]2NC2=C(C(=O)NC2)[C@H]1c1ccccc1OCc1ccccc1 [Example 102]
24,3.6,CC(=O)N1[C@@H]2CCCC[C@H]2NC2=C(C(=O)NC2)[C@H]1c1ccccc1OCc1ccccc1 [Example 103]
25,1,CCOCC(=O)N1[C@@H]2CCCC[C@H]2NC2=C(C(=O)NC2)[C@H]1c1ccccc1O [Example 104]
26,3.7,CC(=O)N1[C@@H]2CCCC[C@H]2NC2=C(C(=O)NC2)[C@H]1c1ccccc1O [Example 105]
27,0.82,CCC(=O)N1[C@@H]2CCCC[C@H]2NC2=C(C(=O)NC2)[C@H]1c1ccc(F)cc1OC [Example 107]

row,A: sugar transporting activity (EC50) [µg/mL],Structure (SMILES)
1,7.8,CCOCC(=O)N1[C@@H]2CCCC[C@H]2NC2=C(C(=O)NC2)[C@H]1c1ccc(F)cc1OC [Example 108]
2,8,COc1cc(F)ccc1[C@@H]1C2=C(CNC2=O)N[C@@H]2CCCC[C@H]2N1C(C)=O [Example 109]
3,6,COc1cc(Cl)ccc1[C@@H]1C2=C(CNC2=O)N[C@@H]2CCCC[C@H]2N1C(C)=O [Example 110]
4,10,COc1ccc(F)cc1[C@@H]1C2=C(CNC2=O)N[C@@H]2CCCC[C@H]2N1C(C)=O [Example 113]
5,12,COc1cccc([C@@H]2C3=C(CNC3=O)N[C@@H]3CCCC[C@H]3N2C(C)=O)c1OC [Example 114]
6,10,COc1ccc([C@@H]2C3=C(CNC3=O)N[C@@H]3CCCC[C@H]3N2C(C)=O)c(OC)c1 [Example 115]
7,6,Cc1ccccc1[C@@H]1C2=C(CNC2=O)N[C@@H]2CCCC[C@H]2N1C(=O)C(F)(F)F [Example 117]
8,2,CCC(=O)N1[C@@H]2CCCC[C@H]2NC2=C(C(=O)NC2)[C@H]1c1ccccc1C [Example 118]
9,4,CCOCC(=O)N1[C@@H]2CCCC[C@H]2NC2=C(C(=O)NC2)[C@H]1c1ccccc1C [Example 119]
10,8,CC(=O)OCC(=O)N1[C@@H]2CCCC[C@H]2NC2=C(C(=O)NC2)[C@H]1c1ccccc1C [Example 120]
11,2.5,Cc1ccccc1[C@@H]1C2=C(CNC2=O)N[C@@H]2CCCC[C@H]2N1C(=O)CO [Example 121]
12,6,COCC(=O)N1[C@@H]2CCCC[C@H]2NC2=C(C(=O)NC2)[C@H]1c1ccccc1C [Example 122]
13,5,CC(=O)N1[C@@H]2CCCC[C@H]2NC2=C(C(=O)NC2)[C@H]1c1ccccc1C [Example 123]
14,7,CCOC(=O)N1[C@@H]2CCCC[C@H]2NC2=C(C(=O)NC2)[C@H]1c1ccccc1C [Example 124]
15,5,CCCC(=O)N1[C@@H]2CCCC[C@H]2NC2=C(C(=O)NC2)[C@H]1c1ccccc1CC [Example 126]
16,2.2,CCC(=O)N1[C@@H]2CCCC[C@H]2NC2=C(C(=O)NC2)[C@H]1c1ccccc1CC [Example 127]
17,5.4,CCOCC(=O)N1[C@@H]2CCCC[C@H]2NC2=C(C(=O)NC2)[C@H]1c1ccccc1CC [Example 129]
18,6,CCc1ccccc1[C@@H]1C2=C(CNC2=O)N[C@@H]2CCCC[C@H]2N1C(=O)COC [Example 130]
19,4,CCc1ccccc1[C@@H]1C2=C(CNC2=O)N[C@@H]2CCCC[C@H]2N1C(C)=O [Example 131]
20,4,CCc1ccccc1[C@@H]1C2=C(CNC2=O)N[C@@H]2CCCC[C@H]2N1C(=O)OC [Example 132]
21,0.5,O=C1NCC2=C1[C@@H](c1ccccc1Br)N(C(=O)CC(F)(F)F)[C@@H]1CCCC[C@H]1N2 [Example 134]
22,1.5,CCC(=O)N1[C@@H]2CCCC[C@H]2NC2=C(C(=O)NC2)[C@H]1c1ccccc1Br [Example 135]
23,1.5,COC(=O)CC(=O)N1[C@@H]2CCCC[C@H]2NC2=C(C(=O)NC2)[C@H]1c1ccccc1Br [Example 136]
24,8.6,CCOCC(=O)N1[C@@H]2CCCC[C@H]2NC2=C(C(=O)NC2)[C@H]1c1ccccc1Br [Example 137]
25,6,COCC(=O)N1[C@@H]2CCCC[C@H]2NC2=C(C(=O)NC2)[C@H]1c1ccccc1Br [Example 138]
26,6,CC(=O)N1[C@@H]2CCCC[C@H]2NC2=C(C(=O)NC2)[C@H]1c1ccccc1Br [Example 139]

row,Structure (SMILES),A: sugar transporting activity (EC50) [µg/mL]
1,CC(=O)N1[C@@H]2CCCC[C@H]2NC2=C(C(=O)NC2)[C@H]1c1ccccc1OC(C)C [Example 98],14
